# Measured values reported in patent US20230414771A1, “PREPARATION AND USE OF IMMUNOSTIMULATORY CONJUGATED COMPLEXES FOR TARGETED DELIVERY AND ACTIVATION” (YAFEI SHANGHAI BIOLOGY MEDICINE SCIENCE & TECHNOLOGY CO., …, priority 2020, published 2023).
# Read-outs that look alike come from different tables or passages of the source. Where a SMILES comes first, the peptide text is derived from it. The star is where a group is joined. Doxorubicin(3'-N) = COc1cccc2c1C(=O)c1c(O)c3c(c(O)c1C2=O)C[C@@](O)(C(=O)CO)C[C@@H]3O[C@H]1C[C@H](N*)[C@H](O)[C@H](C)O1; Hexanoyl(6-maleimido) = O=C1C=CC(=O)N1CCCCCC(=O)*
# Assays:
# [1] = Tissue distribution of released doxorubicin in orthotopic liver CT26 tumor mice; format: in vivo, BALB/c mice
# Experimental: • Objective: To investigate the tissue distribution of activating drugs in liver tumors. • Test animals: BALB/c mice, 6-8 weeks old, all female.
# • 1) CT26 cells were purchased from ATCC. […] Randomization was performed when the tumor size reached 800-1000 mm^3. Tumor tissue was then extracted and cut into 100 mm^3 tumor tissue pieces and transplanted orthotopically into BALB/c mouse livers. • 3) Administration process: After 14 days, when the orthotopically transplanted tumor grew, a group of 36 orthotopically transplanted tumor mice were treated with drugs. […] The previously published use of EMC-AANL-DOX was for breast cancer treatment.
# [2] = tested on: BALB/C mice; experiment: Acute toxicity (MTD) of intravenous administration in mice; format: in vivo; conditions: 38.4 μmol/kg intravenous, 10 mice, observed 17 days
# Experimental: They were randomly divided into 7 groups according to body weight, 10 mice in each group. […] The control test of saline group and paclitaxel group injection (commercially available, Beijing Youcare pharmaceutical) was carried out, the volume of administration was 0.2 ml for each mouse.
# [3] = tested on: Human hepatoma HepG2 cells; experiment: Human liver cancer HepG2 tumors in nude mice; format: in vivo; conditions: for inhibition in vivo at 54 µmol/kg: Mus musculus, read-out: Tumor inhibition rate (%) Day 28
# Method in brief: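 Female nude mice aged 6-8 weeks bearing HepG2 xenografts, randomized at 100 mm^3 tumor size. Dosing IV from Day 1 at 54 umol/kg; DOX at 18 umol/kg.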
# [4] = tested on: HT1080 tumors; experiment: HT1080 tumor model in nude mice, 36 umol/kg; format: in vivo; conditions: for inhibition in vivo at 36 µmol/kg: Mus musculus, read-out: Tumor inhibition rate Day 28
# Experimental: • 1. Animals: nude mice aged 6-8 weeks, all female. • 2. Preparation of tumor models • 1) HT1080 cells were purchased from ATCC and characterized according to the instructions provided. […] Randomization was performed when the tumor size reached 100 mm^3. Treatment was then initiated, and the day of initiation of treatment was counted as Day 1. • 3) Treatment process
# According to the clinical application of the corresponding compound, the drug was administered intravenously (IV). The compounds indicated in the table were administered at a low dose and at the same dose of 36 umol/kg.
# [5] = Solution stability, HPLC and electrophoresis; conditions: 0.5 mg/ml, pH 5.5, 25° C.
# Experimental: Add 0.5 ml of sterile water for injection to prepare a 10 mg/ml mother solution. […] Take 30 ul of the mother solution, add 570 ul of buffer solutions with different pH values of 5.5, and prepare a 0.5 mg/ml sample solution. After the sample was clarified, it was placed in a 25° C./37° C. water bath, and after 8 hours, the sample was sampled by HPLC and electrophoresis to detect the content of the sample relative to 0 hours, and the solution stability data of different compounds could be obtained.
# [6] = tested on: Human prostate cancer PC-3 tumor tissue homogenate; experiment: Activation in PC-3 tumor tissue homogenate; format: biochemical; conditions: PC-3 homogenate pH 6.0, 37° C., 1 mg/ml
# Experimental: (§1) In the experiments of the present disclosure, 1 mg/ml of the sample compound was added to 100 μg of acidified tumor tissue homogenate (pH 6.0) at 37° C. The enzyme in the tumor tissue homogenate can cause the release of doxorubicin, and the reduction of compound and the increase of doxorubicin could be detected by HPLC to compare the activation efficiency of the drug in the tumor tissue.
# [7] = Water solubility test (observation and HPLC); format: physicochemical; conditions: thermodynamic from solid
# Experimental: The compounds prepared in accordance with the examples of the disclosure and the reference compounds C1, C2, C3 and C4 were lyophilized (−70° C.).
# [8] = tested on: Human breast cancer MDA-MB435 tumor tissue homogenate; experiment: Activation in MDA-MB435 tumor tissue homogenate; format: biochemical; conditions: MDA-MB435 homogenate pH 6.0, 37° C., 1 mg/ml
# Experimental: as §1
# [9] = tested on: acidified human breast cancer (MDA-MB435) tumor tissue homogenate; experiment: Activation efficiency of S-C-A linkers in tumor tissue homogenate, HPLC; format: biochemical; conditions: Table 2-1; C is AAN; 1 mg/ml, homogenate pH 6.0, 37° C.
# Experimental: When C is AAN, the activation of the different S-C-A linkers and the control linker is evaluated in an activation assay. They were dissolved and diluted tenfold using S-C-A conjugates to a concentration of 0.1 mM/ml. The sample compounds were added at a concentration of 1 mg/ml to 100 μg of acidified human breast cancer (MDA—MB435) tumor tissue homogenate (pH 6.0) at 37° C. The enzyme in the tumor tissue homogenate was released and detected by HPLC to compare the efficiency of activation of the linker by the tumor tissue.
# The effect of the D-type tripeptide on the activation efficiency was examined in comparison to the native peptide sequence linker cleaved by Legumain, S1 in MI-S is —CH2CH2—CONH—, S2: 2 peg.
# [10] = tested on: Human fibrosarcoma HT-1080 tumor tissue homogenate; experiment: Activation in HT-1080 tumor tissue homogenate; format: biochemical; conditions: HT-1080 homogenate pH 6.0, 37° C., 1 mg/ml
# Experimental: as §1
# [11] = tested on: CT26 tumors orthotopically transplanted in liver; experiment: Orthotopic liver CT26 tumors, EMC-AANL-DOX, lenvatinib and PD-1; format: in vivo, BALB/c mice; conditions: 18 μmol/kg IV once weekly for 3 weeks
# Experimental: 5×10^5 CT26 cells were injected subcutaneously into the back of nude mice. Randomization was performed when the tumor size reached 800-1000 mm^3. Tumor tissue was then extracted and cut into 100 mm^3 tumor tissue pieces and transplanted orthotopically into BALB/c mouse livers. After one week, when the orthotopically transplanted tumors grew, the mice with orthotopically transplanted tumors were randomized. • 2) Treatment course: 6 mice in one group were treated with drugs. The day of treatment was Day 1. According to the clinical application of EMC-AANL-DOX, the drug was administered intravenously (IV) once weekly for 3 weeks.
# [12] = tested on: Human non-small cell lung cancer A549 tumor tissue homogenate; experiment: Activation in A549 tumor tissue homogenate; format: biochemical; conditions: A549 homogenate pH 6.0, 37° C., 1 mg/ml
# Experimental: as §1
# [13] = format: physicochemical
# Text: The freeze-dried products EMC-AANL-DOX, HSA-EMC-AANL-DOX, HSA-QHL-087-DOX and HSA-QHL-087-N-CBP prepared by the embodiment of the disclosure are subpackaged in a sterile room and redissolved by water for injection.
# [14] = tested on: Human colon cancer HT-29 tumor tissue homogenate; experiment: Activation in HT-29 tumor tissue homogenate; format: biochemical; conditions: HT-29 homogenate pH 6.0, 37° C., 1 mg/ml
# Experimental: as §1
structure (smiles),measurement,setting,value
COc1cccc2c1C(=O)c1c(O)c3c(c(O)c1C2=O)C[C@@](O)(C(=O)CO)C[C@@H]3O[C@H]1C[C@H](NC(=O)[C@H](CC(C)C)NC(=O)[C@H](CC(N)=O)NC(=O)[C@H](C)NC(=O)[C@H](C)NC(=O)CCOCCOCCNC(=O)CCN2C(=O)C=CC2=O)[C@H](O)[C@H](C)O1 [QHL-087-DOX],doxorubicin delivery and activation compared with EMC-AANL-DOX,[1]; liver and in situ liver tumor,enhanced doxorubicin delivery and activation in situ liver cancer
same,distribution of active doxorubicin (FIGS. 8 and 9),"[1]; tissues collected at 1-72 hr, AUClast",mainly distributed in the liver and liver orthotopic tumors
same,Number of dead mice,[2],4
same,inhibition in vivo at 54 µmol/kg,"[3]; HepG2, iv, 672 h",100%
same,inhibition in vivo at 36 µmol/kg,"[4]; HT-1080, iv, 672 h",100%
same,"Stability data of the solution, 8 hr (content relative to 0 hours)",[5],98.2%
COc1cccc2c1C(=O)c1c(O)c3c(c(O)c1C2=O)C[C@@](O)(C(=O)CO)C[C@@H]3O[C@H]1C[C@H](NC(=O)[C@H](CC(C)C)NC(=O)[C@H](CC(N)=O)NC(=O)[C@H](C)NC(=O)[C@H](C)NC(=O)CCCCCN2C(=O)C=CC2=O)[C@H](O)[C@H](C)O1 [EMC-AANL-DOX] ({Hexanoyl(6-maleimido)}-AANL-{Doxorubicin(3'-N)}),Compound activation ratios (%),[6],37.3%
same,solubility,[7],< 5000 µg/mL
same,Number of dead mice,[2],8
same,Compound activation ratios (%),[8],42.3%
same,Activation efficiency (%),[9],56.4%
same,Compound activation ratios (%),[10],44.7%
same,efficacy combined with lenvatinib (FIG. 11),[11],superior to that of each monotherapy
same,efficacy combined with PD-1 (FIG. 11),[11]; PD-1 5 mg/kg twice weekly,superior to that of lenvatinib combined with PD-1
same,Compound activation ratios (%),[12],46.4%
same,Solubility in water for injection,[13],Insolubility
same,Tumor volume (mm^3) Day 28,[3]; 54 umol/kg IV once a week for 4 weeks,218.3 ± 167.7 mm^3
same,inhibition in vivo at 54 µmol/kg,"[3]; HepG2, 672 h, 54 umol/kg IV once a week for 4 weeks",92.5%
same,"therapeutic effect on liver cancer, in words",[3]; same molar dose,good effect on the treatment of liver cancer
same,Tumor volume (mm^3) Day 28,[4]; 36 umol/kg IV once a week for 3 weeks,138.3 ± 124.6 mm^3
same,inhibition in vivo at 36 µmol/kg,"[4]; HT-1080, 672 h, 36 umol/kg IV once a week for 3 weeks",92.1%
same,Compound activation ratios (%),[14],49.4%
